Assay results as given in US20150258084A1, “STEM CELL COMPOSITIONS AND METHODS OF THEIR USE” (Banner Health, priority 2014, published 2015).

How the values were obtained:
Type in all cases: cell-based, rat
cardiac stem cells [1] = assay: RNA expression analysis (real-time RT-PCR) of EMT and pluripotency markers after 7 days with TGF-β inhibitors
Experimental: Total RNA was extracted from the cardiac stem cells using PureLink RNA Mini Kit (Life Technologies) according to the manufacturer's protocol. RNA was then quantified with a Quanti-iT RiboGreen RNA Assay Kit and assessed using a BioTek Synergy HT Microplate Reader (excitation/emission 480/520 nm). Total RNA (200 ng) was reverse-transcribed with a QuantiTect Reverse Transcription kit (Qiagen). Real-time RT-PCR was conducted using Rower SYBR Green Master Mix (Applied Biosystems) on a StepOnePlus Real-time PCR System (Applied Biosystems). Specific primers were synthesized by Life Technologies. CYPA was used as a reference gene. Data analysis was performed on StepOne software version 2.1 (Applied Biosystems) using the comparative Ct (AACt) quantitation method.
To determine the effect of inhibition of TGF-β signaling in cardiac stem cells on markers of epithelial/endothelial to mesenchymal transition (i.e., EMT markers) and pluripotency markers the following experiments were performed. Cardiac stem cells were isolated from sham and CHF heart tissue as described in Example 1 above. Cardiac stem cells from CHF and sham animals were treated in culture with TGF-β inhibitors SB431542 or SIS3 for 7 days and subsequently assessed for EMT and pluripotency expression by RNA expression analysis and western blotting using the techniques described above in Example 1.

cardiac stem cells [2] = assay: Differentiation potential: cardiac troponin T (TnT) immunocytochemistry; settings: 7 days in cardiac differentiation medium with 2 μmol/L Mocetinostat
Experimental: The effects of TGF-β inhibition on the differentiation potential of cardiac stem cells was examined as follows. Cardiac stem cells were isolated from heart tissue of CHF and sham animals as described in Example 1 above. Cells were subsequently cultured in cardiac differentiation medium (EMD Millipore) supplemented with 2 μmol/L Mocetinostat (SelleckChem) in the presence or absence of TGF-β inhibitors SB431542 and SIS3 for 7 days. Expression of cardiac troponin T (TnT) was evaluated by immunocytochemistry. TnT is an accepted marker for cardiac differentiation. Cells were fixed/permeabilized with a 1:1 acetone:ethanol mixture, blocked with 3% BSA in PBS, and labeled with mouse anti-TnT primary antibody (Abcam). Specific staining was visualized using anti-mouse secondary antibodies conjugated with Alexa 568 (Molecular Probes). Nuclei were stained with 4′,6-diamidino-2-phenylindole (Invitrogen). TnT-positive cells were quantified in 5 random microscopic fields. The percentage of TnT-positive cells was calculated as the number of positively stained cells normalized to the total number of cells.

[3] = system: explant-derived cardiac stem cells; assay: Flow cytometry of explant outgrowths cultured 21 days with TGF-β inhibitors
Experimental: Isolated cardiac stem cells were further characterized using flow cytometry as follows. Cells were fixed in 70% ethanol and labeled with the following antibodies: c-Kit (Santa-Cruz Biotechnology), vimentin and smooth muscle actin (Abcam), and CD90 (BD Biosciences). Cells were treated with secondary antibodies corresponding to either anti-rabbit or anti-mouse IgG conjugated with Alexa 488, phycoerythrin (PE), or PE-Cy5.5 (Life Technologies). Direct labeling with FITC-conjugated CD34 and PE-Cy5.5 conjugated CD45 (BD Biosciences) antibodies was used to exclude bone marrow and hematopoietic cells. Freshly isolated bone marrow cells were used as positive controls for CD34 and CD45 labeling. For a negative control, cells were labeled with isotype IgG instead of primary antibody. Cell events were detected using a FACS Calibur flow cytometer equipped with an argon laser (BD Biosciences). Data were analyzed using CellQuest software (BD Biosciences).
The effects of TGF-β inhibition on the yield of explant-derived cardiac stem cells were examined as follows. Cardiac stem cells were isolated from heart tissue of CHF and sham animals as described in Example 1 above. Cells were subsequently cultured in cardiac differentiation medium (EMD Millipore) supplemented with 2 μmol/L Mocetinostat (SelleckChem) in the presence or absence of TGF-β inhibitors SB431542 and SIS3 for 21 days. Explant outgrowths were analyzed by flow cytometry as described above in Example 1.

cardiac explants = assay: Morphology of explant cultures after 21 days with TGF-β inhibitors; settings: 21 days in culture

| SMILES | increased Sox2 expression (cardiac stem cells [1]; CHF cardiac stem cells) [fold] | upregulated E-cadherin expression (cardiac stem cells [1]; CHF cardiac stem cells) | upregulated Nanog expression (cardiac stem cells [1]; CHF cardiac stem cells) | increased Sox2 expression (cardiac stem cells [1]; sham cardiac stem cells) [fold] | reduced SMA gene expression (cardiac stem cells [1]; sham cardiac stem cells) [fold] | upregulated E-cadherin expression (cardiac stem cells [1]; sham cardiac stem cells) [fold] | upregulated Nanog expression (cardiac stem cells [1]; sham cardiac stem cells) [fold] | TnT+ cells (cardiac stem cells [2]; CHF cardiac stem cells) [%] | TnT+ cells (cardiac stem cells [2]; sham cardiac stem cells) [%] | decreased percentage of vimentin-positive fibroblasts ([3]; CHF CSCs) [%] | increase in the number of c-Kit+ cells ([3]; CHF CSCs) | reduction of the number of SMA-positive myofibroblasts ([3]; CHF CSCs) [%] | decreased percentage of vimentin-positive fibroblasts ([3]; sham CSCs) [%] | increase in the number of c-Kit+ cells ([3]; sham CSCs) [%] | number of small, round phase-bright cell clusters compared with controls (cardiac explants) | reduction of the number of CD90-positive cells ([3]; CHF CSCs) [%] | reduction of the number of CD90-positive cells ([3]; sham CSCs) [%] |
| --- | --- | --- | --- | --- | --- | --- | --- | --- | --- | --- | --- | --- | --- | --- | --- | --- | --- |
| NC(=O)c1ccc(-c2nc(-c3ccc4c(c3)OCO4)c(-c3ccccn3)[nH]2)cc1 [SB431542] | 4.1 | 3.6 fold | 2.4 fold | 5.2 | 2 | 6.2 | 2 | 15.4 | 24.4 | 42 | 75% | 63.3 | 55 | 36.6 | higher number |  |  |
| COc1cc2c(cc1OC)CN(C(=O)/C=C/c1c(-c3ccccc3)n(C)c3ncccc13)CC2 [SIS3] |  | no effect | no effect | 4 | 5 | 5 | 2.2 | 19.6 | 36.2 | 34 | no effect | 62.8 | 35 | 52 | higher number | 53 | 52.4 |
